From patent publication EP0092073A1, “Magnesium salt of chenodeoxycholic acid and ursodeoxycholic acid, the process for its preparation, and therapeutic compositions which contain it as active principle” (SCHWARZ ITALIA S.p.A., priority 1982, dated 1983)

Columns and labels:
[1] = Hydrolysis by the gastric juice; conditions: prodrug supplying its two component acids
dog = test: Acute lethality and toxicity, oral administration (gastric probe); format: in vivo; set-up: key to Toxic symptomatology Type: NN = no symptomatology; D = depression; conditions: for % mortality at following times after administration 24 h / % mortality at following times after administration 7 days / Toxic symptomatology Type / Toxic symptomatology Latency: oral; for LD50 (mg/kg with reliability limits) 7 days after treatment: po, also printed as greater than 600 Dts/kg
Mus musculus = test: Lethality and toxicity, endoperitoneal administration; format: in vivo; set-up: key to Toxic symptomatology Type: NN = no symptomatology; D = depression; conditions: for % mortality at the following times after administration 24 h / % mortality at the following times after administration 7 days / Toxic symptomatology Latency / Toxic symptomatology Type: endoperitoneal; for LD50 (mg/kg with reliability limits) 7 days after treatment: ip, probit method
Method: (§1) Unless otherwise specified, the research was carried out using: a) Mg-UCD capsules as such; b) the powdered contents of Mg-UCD capsules; CDCA (chenodeoxycholic acid) and UDCA (ursodeoxycholic acid) as pure substance which in all cases was partly dissolved and partly suspended under warm conditions (T = 30°C) in 10% gum arabic mucilage (so as to administer 10-40 ml of liquid per kg orally). In certain cases, namely in the experiments involving parenteral administration, the active principle of Mg-UCD, the chenodeoxycholic acid and ursodeoxycholic acid were dissolved in distilled water of slightly alkaline pH (5-10 ml/kg).
(§2) The generally acute lethality, toxicity and tolerability were determined by oral administration of the Mg-UCD (by gastric probe) in the Mus musculus, rat and dog. Animals of both sexes were used, none of which were pregnant. They were fasted for about 12 hours before treatment (but allowing them free access to water). The investigations were carried out using the Mg-UCD in powder form. Comparative investigations were carried out on the rat and Mus musculus using the active principle by endoperitoneal administration, and chenodeoxycholic acid and ursodeoxycholic acid by oral administration (using a gastric probe). Each dose was administered to 20 rats or Mus musculus (10 male and 10 female) and to eight dogs (4 male and 4 female). The animals were observed attentively during the 7 days following administration, and any lethality, toxic symptoms, disturbances, functional variations determinable with the eye, behaviour etc. were noted.
(§3) The LD50 was determined 7 days after administration using the probit method.

rat = test: as above; format: in vivo; set-up: key to Toxic symptomatology Type: NN = no symptomatology; D = depression; conditions: for % mortality at the following times after administration 24 h / % mortality at the following times after administration 7 days / Toxic symptomatology Latency / Toxic symptomatology Type: endoperitoneal; for LD50 (mg/kg with reliability limits) 7 days after treatment: ip, probit method
Method: as §1, §2, §3

Solubility = format: physicochemical

## double magnesium salt of chenodeoxycholic acid and ursodeoxycholic acid [Mg-UCD]
[1]
  hydrolysis by the gastric juice: hydrolysed slowly
dog; Dog F, 250 mg/kg (60 Dts/kg)
  % mortality at following times after administration 24 h: 0%
  % mortality at following times after administration 7 days: 0%
  Toxic symptomatology Type: NN
dog; Dog F, 2500 mg/kg (600 Dts/kg)
  % mortality at following times after administration 24 h: 0%
  % mortality at following times after administration 7 days: 0%
  Toxic symptomatology Latency: 5-10 min
  Toxic symptomatology Type: D
dog; Dog F
  LD50 (mg/kg with reliability limits) 7 days after treatment: greater than 2500 mg/kg (greater than 600 Dts/kg)
dog; Dog M, 250 mg/kg (60 Dts/kg)
  % mortality at following times after administration 24 h: 0%
  % mortality at following times after administration 7 days: 0%
  Toxic symptomatology Type: NN
dog; Dog M, 2500 mg/kg (600 Dts/kg)
  % mortality at following times after administration 24 h: 0%
  % mortality at following times after administration 7 days: 0%
  Toxic symptomatology Latency: 5-10 min
  Toxic symptomatology Type: D
dog; Dog M
  LD50 (mg/kg with reliability limits) 7 days after treatment: greater than 2500 mg/kg (greater than 600 Dts/kg)
dog; dog, oral (gastric probe), 7 days following treatment, individual doses up to 2500 mg/kg of active principle (600 Dts/kg)
  any case of death or any significant toxic symptomatology: does not show
Mus musculus; M. musculus F, 1000 mg/kg
  % mortality at the following times after administration 24 h: 0%
  % mortality at the following times after administration 7 days: 0%
  Toxic symptomatology Latency: 1-2 min
  Toxic symptomatology Type: D
Mus musculus; M. musculus F, 2000 mg/kg
  % mortality at the following times after administration 24 h: 10%
  % mortality at the following times after administration 7 days: 10%
  Toxic symptomatology Latency: 1-2 min
  Toxic symptomatology Type: D
Mus musculus; M. musculus F, 4000 mg/kg
  % mortality at the following times after administration 24 h: 70%
  % mortality at the following times after administration 7 days: 70%
  Toxic symptomatology Latency: 1-2 min
  Toxic symptomatology Type: D
Mus musculus; M. musculus F
  LD50 (mg/kg with reliability limits) 7 days after treatment: 2455 (1984-3039) mg/kg
Mus musculus; M. musculus M, 1000 mg/kg
  % mortality at the following times after administration 24 h: 0%
  % mortality at the following times after administration 7 days: 0%
  Toxic symptomatology Latency: 1-2 min
  Toxic symptomatology Type: D
Mus musculus; M. musculus M, 2000 mg/kg
  % mortality at the following times after administration 24 h: 10%
  % mortality at the following times after administration 7 days: 10%
  Toxic symptomatology Latency: 1-2 min
  Toxic symptomatology Type: D
Mus musculus; M. musculus M, 4000 mg/kg
  % mortality at the following times after administration 24 h: 60%
  % mortality at the following times after administration 7 days: 60%
  Toxic symptomatology Latency: 1-2 min
  Toxic symptomatology Type: D
Mus musculus; M. musculus M
  LD50 (mg/kg with reliability limits) 7 days after treatment: 2455 (1984-3039) mg/kg
rat; Rat F, 1000 mg/kg
  % mortality at the following times after administration 24 h: 0%
  % mortality at the following times after administration 7 days: 0%
  Toxic symptomatology Latency: 1-2 min
  Toxic symptomatology Type: D
rat; Rat F, 2000 mg/kg
  % mortality at the following times after administration 24 h: 10%
  % mortality at the following times after administration 7 days: 10%
  Toxic symptomatology Latency: 1-2 min
  Toxic symptomatology Type: D
rat; Rat F, 4000 mg/kg
  % mortality at the following times after administration 24 h: 60%
  % mortality at the following times after administration 7 days: 60%
  Toxic symptomatology Latency: 1-2 min
  Toxic symptomatology Type: D
rat; Rat F
  LD50 (mg/kg with reliability limits) 7 days after treatment: 2449 (2063-2906) mg/kg
rat; Rat M, 1000 mg/kg
  % mortality at the following times after administration 24 h: 0%
  % mortality at the following times after administration 7 days: 0%
  Toxic symptomatology Latency: 1-2 min
  Toxic symptomatology Type: D
rat; Rat M, 2000 mg/kg
  % mortality at the following times after administration 24 h: 10%
  % mortality at the following times after administration 7 days: 10%
  Toxic symptomatology Latency: 1-2 min
  Toxic symptomatology Type: D
rat; Rat M, 4000 mg/kg
  % mortality at the following times after administration 24 h: 70%
  % mortality at the following times after administration 7 days: 70%
  Toxic symptomatology Latency: 1-2 min
  Toxic symptomatology Type: D
rat; Rat M
  LD50 (mg/kg with reliability limits) 7 days after treatment: 2288 (1902-2751) mg/kg
Solubility; in alcohol
  Solubility: fairly soluble in alcohol
Solubility; in water, listed as Mg salt
  Solubility: practically insoluble in water
Solubility; in water, listed as double salt
  Solubility: insoluble in water
